PMC11945487 (Viruses, 2025)

Experiments:
HEK293 cells = test: MTT cytotoxicity assay; type: cell-based, human; conditions: HEK293, 24 h, 0 to 100 µM
SARS-CoV-2 M^pro = SARS-CoV-2 M^pro (Severe acute respiratory syndrome coronavirus 2, UniProt P0DTD1); type: binding; conditions: modified Stern–Volmer plot
[1] = ref [41]; cited from earlier work

Row | Structure (SMILES) | cytotoxicity / cell viability (HEK293 cells) | KSV (SARS-CoV-2 M^pro) | number of binding sites (SARS-CoV-2 M^pro) | solubility in organic solvents [1]
1 | O=c1c(O)c(-c2ccc(O)c(O)c2)oc2cc(O)cc(O)c12 [Quercetin] | consistent and high cell viability |  |  | 
2 | COc1cc2ccc(=O)oc2cc1O [Scopoletin, 6-methoxy-7-hydrocoumarian] | maintained acceptable cell viability | 932000 M⁻¹ | one | dissolves in organic solvents such as methanol and chloroform
